{"source": "patent US10375959B2", "about": "“Ternary herbicidal combination comprising saflufenacil” (BASF Agro B.V., priority 2015, dated 2019)", "type_in_all_cases": "in vivo", "key": {"Digitaria sanguinalis": {"tested_on": "Digitaria sanguinalis", "experiment": "Greenhouse post-emergence herbicidal activity on DIGSA (large crabgrass), 20 DAT", "conditions": "for % activity 20 DAT: DIGSA", "description": "(§1) The test plants were first grown to a height of 3 to 20 cm, depending on the plant habit, and only then treated (post-emergence treatment). Here, the herbicidal combinations were suspended, emulsified or dissolved in water as distribution medium and afterwards applied by spraying, using finely distributing nozzles.\n(§2) The herbicides A, B and C were used as commercially available formulations and introduced to the spray liquor with the amount of solvent system used for applying the active compound. In the examples, the solvent used was water.\n(§3) The test period extended over 20 days. During this time, the plants were tended, and their response to the treatments with active compounds was evaluated.\n(§4) The evaluation for the damage caused by the chemical compositions was carried out using a scale from 0 to 100%, compared to the untreated control plants. Here, 0 means no damage and 100 means complete destruction of the plants.\n(§5) The plants used in the greenhouse experiments belonged to the following species:\n(§6) The value E, which is to be expected if the activity of the individual compounds is just additive, was calculated using the method of S. R. Colby (1967) “Calculating synergistic and antagonistic responses of herbicide combinations”, Weeds 15, p. 22 ff. For two component mixtures the value E was calculated by the following formula E=X+Y−(X·Y/100)\n(§7) where X=effect in percent using a mixture of herbicides A and B at application rates a and b, respectively; • Y=effect in percent using herbicide C at an application rate c; • E=expected effect (in %) of A+B+C at application rates a+b+c.\n(§8) If the value observed in this manner is higher than the value E calculated according to Colby, a synergistic effect is present.\n(§9) Tables 1 to 41 relate to the herbicidal activities of the binary mixture of herbicides A and B, of herbicide C individually and of their combinations in post-emergence applications assessed 20 days after treatment (20 DAT)."}, "Brachiaria platyphylla": {"tested_on": "Brachiaria platyphylla", "experiment": "Greenhouse post-emergence herbicidal activity on BRAPP (broadleaf signalgrass), 20 DAT", "description": "as §1, §2, §3, §4, §5, §6, §7, §8, §9"}, "Abutilon theophrasti": {"tested_on": "Abutilon theophrasti", "experiment": "Greenhouse post-emergence herbicidal activity on ABUTH (velvetleaf), 20 DAT", "description": "as §1, §2, §3, §4, §5, §6, §7, §8, §9"}, "Setaria viridis": {"tested_on": "Setaria viridis", "experiment": "Greenhouse post-emergence herbicidal activity on SETVI (green foxtail), 20 DAT", "description": "as §1, §2, §3, §4, §5, §6, §7, §8, §9"}, "Amaranthus retroflexus": {"tested_on": "Amaranthus retroflexus", "experiment": "Greenhouse post-emergence herbicidal activity on AMARE (pig weed), 20 DAT", "description": "as §1, §2, §3, §4, §5, §6, §7, §8, §9"}, "Avena fatua": {"tested_on": "Avena fatua", "experiment": "Greenhouse post-emergence herbicidal activity on AVEFA (wild oat), 20 DAT", "description": "as §1, §2, §3, §4, §5, §6, §7, §8, §9"}, "Echinochloa crus-galli": {"tested_on": "Echinochloa crus-galli", "experiment": "Greenhouse post-emergence herbicidal activity on ECHCG (barnyardgrass), 20 DAT", "description": "as §1, §2, §3, §4, §5, §6, §7, §8, §9"}, "Solarium nigrum": {"tested_on": "Solarium nigrum", "experiment": "Greenhouse post-emergence herbicidal activity on SOLNI (black nightshade), 20 DAT", "conditions": "C 0.125 g ai/ha", "description": "as §1, §2\nThe test period extended over 20 days. During this time, the plants were tended, and their response to the treatments with active compounds was evaluated. […]\nThe value E, which is to be expected if the activity of the individual compounds is just additive, was calculated using the method of S. R. Colby (1967) “Calculating synergistic and antagonistic responses of herbicide combinations”, Weeds 15, p. […] For two component mixtures the value E was calculated by the following formula E=X+Y−(X·Y/100) […]\nas §8, §9"}}, "data": [{"smiles": "CCCCC(CC)COC(=O)COc1ccc(Cl)cc1Cl", "note": "(stereo not drawn) [2,4-D LV ester, 2-ethylhexyl ester of 2,4-D]", "values": [{"measurement": "% activity 20 DAT", "setting": "Digitaria sanguinalis; C 6.25 g ai/ha", "value": 0, "unit": "%"}, {"measurement": "% activity 20 DAT", "setting": "Brachiaria platyphylla; C 6.25 g ai/ha", "value": 20, "unit": "%"}, {"measurement": "% activity 20 DAT", "setting": "Abutilon theophrasti; ABUTH, C 6.25 g ai/ha", "value": 20, "unit": "%"}]}, {"smiles": "CCOCN(C(=O)CCl)c1c(C)cccc1CC", "note": "[acetochlor]", "values": [{"measurement": "% activity 20 DAT", "setting": "Setaria viridis; C 50.0 g ai/ha", "value": 10, "unit": "%"}, {"measurement": "% activity 20 DAT", "setting": "Amaranthus retroflexus; AMARE, C 12.5 g ai/ha", "value": 0, "unit": "%"}, {"measurement": "% activity 20 DAT", "setting": "Brachiaria platyphylla; C 50.0 g ai/ha", "value": 5, "unit": "%"}, {"measurement": "% activity 20 DAT", "setting": "Avena fatua; C 50.0 g ai/ha", "value": 10, "unit": "%"}, {"measurement": "pest or weed control at 25 g/ha", "setting": "Abutilon theophrasti; Abutilon theophrasti, 480 h, ABUTH, C 25.0 g ai/ha", "value": 25, "unit": "%"}]}, {"smiles": "CCNc1nc(Cl)nc(NC(C)C)n1", "note": "[atrazine]", "values": [{"measurement": "inhibition at 25 g/ha", "setting": "Setaria viridis; Setaria viridis, 480 h, 25.0 g ai/ha, 20 DAT, read-out: % activity 20 DAT, solo C application", "value": 25, "unit": "%"}, {"measurement": "% activity 20 DAT", "setting": "Brachiaria platyphylla; C 12.5 g ai/ha", "value": 0, "unit": "%"}, {"measurement": "% activity 20 DAT", "setting": "Avena fatua; C 12.5 g ai/ha", "value": 0, "unit": "%"}, {"measurement": "inhibition at 12.5 g/ha", "setting": "Abutilon theophrasti; Abutilon theophrasti, 480 h, ABUTH, 12.5 g ai/ha, 20 DAT, read-out: % activity 20 DAT, solo C application", "value": 25, "unit": "%"}]}, {"smiles": "CCSC(C)CC1CC(=O)C(/C(CC)=N/OC/C=C/Cl)=C(O)C1", "note": "(stereo not drawn) [clethodim]", "values": [{"measurement": "inhibition at 0.75 g/ha", "setting": "Digitaria sanguinalis; Digitaria sanguinalis, 480 h, read-out: % activity 20 DAT, solo C application", "value": 0, "unit": "%"}, {"measurement": "inhibition at 0.75 g/ha", "setting": "Amaranthus retroflexus; Amaranthus retroflexus, 480 h, read-out: % activity 20 DAT, solo C application", "value": 20, "unit": "%"}, {"measurement": "% activity 20 DAT", "setting": "Avena fatua; C 0.75 g ai/ha", "value": 20, "unit": "%"}, {"measurement": "pest or weed control at 0.75 g/ha", "setting": "Abutilon theophrasti; Abutilon theophrasti, 480 h, read-out: % activity 20 DAT", "value": 5, "unit": "%"}, {"measurement": "inhibition at 0.75 g/ha", "setting": "Abutilon theophrasti; Abutilon theophrasti, 480 h, read-out: % activity 20 DAT, solo C application", "value": 5, "unit": "%"}]}, {"smiles": "COc1c(Cl)ccc(Cl)c1C(=O)O", "note": "[dicamba]", "values": [{"measurement": "% activity 20 DAT", "setting": "Brachiaria platyphylla; C 17.5 g ai/ha", "value": 40, "unit": "%"}, {"measurement": "pest or weed control at 4.375 g/ha", "setting": "Abutilon theophrasti; Abutilon theophrasti, 480 h, ABUTH, C 4.375 g ai/ha", "value": 40, "unit": "%"}]}, {"smiles": "CCOc1nc(F)cc2nc(S(=O)(=O)Nc3c(Cl)cccc3Cl)nn12", "note": "[diclosulam]", "values": [{"measurement": "% activity 20 DAT", "setting": "Echinochloa crus-galli; C 1.0 g ai/ha", "value": 20, "unit": "%"}, {"measurement": "% activity 20 DAT", "setting": "Solarium nigrum", "value": 0, "unit": "%"}, {"measurement": "% activity 20 DAT", "setting": "Digitaria sanguinalis; C 0.5 g ai/ha", "value": 25, "unit": "%"}, {"measurement": "% activity 20 DAT, solo C application", "setting": "Brachiaria platyphylla; 1.0 g ai/ha, 20 DAT", "value": 45, "unit": "%"}, {"measurement": "% activity 20 DAT, solo C application", "setting": "Abutilon theophrasti; ABUTH, 0.125 g ai/ha, 20 DAT", "value": 10, "unit": "%"}]}, {"smiles": "COC[C@H](C)N(C(=O)CCl)c1c(C)csc1C", "note": "[dimethenamid-P]", "values": [{"measurement": "% activity 20 DAT, solo C application", "setting": "Echinochloa crus-galli; 75 g ai/ha, 20 DAT", "value": 80, "unit": "%"}, {"measurement": "% activity 20 DAT, solo C application", "setting": "Amaranthus retroflexus; AMARE, 37.5 g ai/ha, 20 DAT", "value": 0, "unit": "%"}, {"measurement": "% activity 20 DAT", "setting": "Amaranthus retroflexus; AMARE, C 18.75 g ai/ha", "value": 0, "unit": "%"}, {"measurement": "% activity 20 DAT", "setting": "Brachiaria platyphylla; C 75.0 g ai/ha", "value": 5, "unit": "%"}, {"measurement": "% activity 20 DAT", "setting": "Avena fatua; C 75.0 g ai/ha", "value": 20, "unit": "%"}, {"measurement": "% activity 20 DAT, solo C application", "setting": "Abutilon theophrasti; ABUTH, 37.5 g ai/ha, 20 DAT", "value": 0, "unit": "%"}]}]}
